Measured values: PubChem BioAssay AID330 (DTP/NCI, 2004)
Several values for one entry are separate records, joined by “and”; a condition that tells them apart may be missing. Identical values can stand only once. Inconclusive results and toxic doses are left out.

System: P388 leukemia ip, CD2F1 mice, survival T/C
Assay: NCI In Vivo Anticancer Drug Screen. Data for tumor model P388 Leukemia (intraperitoneal) in CD2F1 (CDF1) mice
Settings: endpoint: median survival time, higher = longer survival
In short: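 Mice carrying the transplanted tumor received test compound or vehicle. Survival was recorded in each group, and the value is the treated-group measurement divided by that of the vehicle-treated control group.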

[1] = dose: 50.0 mg/kg/injection, schedule: Q01DX009 (ip), vehicle: Klucel (hydroxypropylcellulose) (HPC)
[2] = dose: 100.0 mg/kg/injection, schedule: Q01DX009 (ip), vehicle: Klucel (hydroxypropylcellulose) (HPC)
[3] = dose: 200.0 mg/kg/injection, schedule: Q01DX009 (ip), vehicle: Klucel (hydroxypropylcellulose) (HPC)
[4] = dose: 50.0 mg/kg/injection, schedule: Q01DX009 (ip), vehicle: saline with Tween-80
[5] = dose: 100.0 mg/kg/injection, schedule: Q01DX009 (ip), vehicle: saline with Tween-80
[6] = dose: 200.0 mg/kg/injection, schedule: Q01DX009 (ip), vehicle: saline with Tween-80
[7] = dose: 50.0 mg/kg/injection, schedule: Q01DX005 (ip), vehicle: saline
[8] = dose: 100.0 mg/kg/injection, schedule: Q01DX005 (ip), vehicle: saline
[9] = dose: 200.0 mg/kg/injection, schedule: Q01DX005 (ip), vehicle: saline
[10] = dose: 50.0 mg/kg/injection, schedule: Q01DX009 (ip), vehicle: saline
[11] = dose: 100.0 mg/kg/injection, schedule: Q01DX009 (ip), vehicle: saline
[12] = dose: 200.0 mg/kg/injection, schedule: Q01DX009 (ip), vehicle: saline
[13] = dose: 400.0 mg/kg/injection, schedule: Q01DX009 (ip), vehicle: saline with Tween-80
[14] = dose: 50.0 mg/kg/injection, schedule: Q01DX005 (ip), vehicle: saline with Tween-80
[15] = dose: 100.0 mg/kg/injection, schedule: Q01DX005 (ip), vehicle: saline with Tween-80
[16] = dose: 200.0 mg/kg/injection, schedule: Q01DX005 (ip), vehicle: saline with Tween-80
[17] = dose: 25.0 mg/kg/injection, schedule: Q01DX009 (ip), vehicle: saline with Tween-80
[18] = dose: 25.0 mg/kg/injection, schedule: Q01DX009 (ip), vehicle: Klucel (hydroxypropylcellulose) (HPC)

In the case of `C1CSCCSCCSCCSCCSCCS1`, the T/C [1] is reported as 96 % of control, the T/C [2] is reported as 102 % of control and the T/C [3] is reported as 96 % of control.
For `Cc1ccc2c(c1)NC(c1cccc(N=Cc3cc(Cl)cc(Cl)c3O)c1)c1cccn1-2` (stereo unspecified), the T/C [4] was 86 % of control, the T/C [5] was 91 % of control and the T/C [6] was 96 % of control.
For `O=C(O)/C=C(\F)C(=O)O`, the T/C (dose: 12.5 mg/kg/injection, schedule: Q01DX005 (ip), vehicle: saline) was 97 % of control and 94 % of control, the T/C (dose: 25.0 mg/kg/injection, schedule: Q01DX005 (ip), vehicle: saline) was 100 % of control and 96 % of control and the T/C [7] was 100 % of control and 107 % of control. For the same molecule, the T/C [8] was 92 % of control and 97 % of control and the T/C [9] was 97 % of control.
For `CC(=O)NCCSSCCCCS(=O)O`, the T/C [7] was 106 % of control and 115 % of control, the T/C [8] was 118 % of control and 121 % of control and the T/C [9] was 124 % of control.
For `CN(C(=S=O)c1ccc([N+](=O)[O-])cc1)c1ccccc1`, the T/C [10] was 100 % of control, the T/C [11] was 97 % of control and the T/C [12] was 104 % of control.
For `CC(=O)N=C(N)N`, the T/C [10] was 103 % of control, the T/C [11] was 100 % of control and the T/C [12] was 99 % of control.
With `CC1(C)/C(=C/c2ccccc2)C(=O)c2ccccc21` the T/C [5] was 90 % of control, the T/C [6] was 100 % of control and the T/C [13] was 100 % of control.
`O=C1CN(c2cccc(C(F)(F)F)c2)C(=O)CN1/N=C/c1ccc[nH]1` was tested, and the T/C [14] was 101 % of control, the T/C [15] was 100 % of control and the T/C [16] was 99 % of control.
With `C=C(OC1C=C(C(=O)O)C2OC2C1O)C(=O)O` (stereo unspecified) the T/C (dose: 2.5 mg/kg/injection, schedule: Q01DX005 (ip), vehicle: saline) was 100 % of control, the T/C (dose: 5.0 mg/kg/injection, schedule: Q01DX005 (ip), vehicle: saline) was 100 % of control and the T/C (dose: 10.0 mg/kg/injection, schedule: Q01DX005 (ip), vehicle: saline) was 106 % of control. For the same molecule, the T/C (dose: 20.0 mg/kg/injection, schedule: Q01DX005 (ip), vehicle: saline) was 102 % of control and the T/C (dose: 40.0 mg/kg/injection, schedule: Q01DX005 (ip), vehicle: saline) was 109 % of control.
With `CCCCCC(C)N(C)C(=O)CNCC(C)C` (stereo unspecified) the T/C [14] was 100 % of control and the T/C [15] was 108 % of control.
For `O=C1CSC(=S)N1c1ccco1`, the T/C [5] was 100 % of control and the T/C [6] was 100 % of control.
In the case of `CC(=O)N(Sc1ccccc1)c1ccccc1`, the T/C [17] is reported as 110 % of control, the T/C [4] is reported as 106 % of control and the T/C [5] is reported as 103 % of control.
In the case of `O=C(Nc1ccc(Cc2ccc(NC(=O)Nc3nccs3)cc2)cc1)Nc1nccs1`, the T/C (dose: 12.5 mg/kg/injection, schedule: Q01DX009 (ip), vehicle: Klucel (hydroxypropylcellulose) (HPC)) is reported as 100 % of control, the T/C [18] is reported as 100 % of control and 95 % of control and the T/C [1] is reported as 98 % of control and 91 % of control.
`C(=N\c1oc(-c2ccccc2)c(-c2ccccc2)c1-c1ccccc1)/c1ccccc1` was tested, and the T/C [14] was 88 % of control, the T/C [15] was 88 % of control and the T/C [16] was 95 % of control.
For `CC1(C)CC(=O)C2=C(SC3=C(C2)C(=O)CC(C)(C)S3)S1`, the T/C (dose: 60.0 mg/kg/injection, schedule: Q01DX005 (ip), vehicle: Klucel (hydroxypropylcellulose) (HPC)) was 104 % of control, the T/C (dose: 120.0 mg/kg/injection, schedule: Q01DX005 (ip), vehicle: Klucel (hydroxypropylcellulose) (HPC)) was 100 % of control and the T/C (dose: 240.0 mg/kg/injection, schedule: Q01DX005 (ip), vehicle: Klucel (hydroxypropylcellulose) (HPC)) was 87 % of control.
With `O=C(CCl)N/N=C(\Cc1ccccc1)c1ccccc1` the T/C [5] was 97 % of control, the T/C [6] was 98 % of control and the T/C [13] was 103 % of control.
In the case of `O=C(O)C1CC(Cl)C(O)C(Cl)C1` (stereo unspecified), the T/C [14] is reported as 100 % of control, the T/C [15] is reported as 97 % of control and the T/C [16] is reported as 100 % of control.
For `C=CC1=C(C)C2=NC1=CC1=NC(=CC3=C(C)C4=C(O)C(C(=O)O)C(=C5NC(=C2)C(C)C5CCC(=O)O)C4=N3)C(CC)=C1C` (stereo unspecified), the T/C (dose: 50.0 mg/kg/injection, schedule: Q01DX005 (ip), vehicle: suspension in saline) was 98 % of control, the T/C (dose: 100.0 mg/kg/injection, schedule: Q01DX005 (ip), vehicle: suspension in saline) was 103 % of control and the T/C (dose: 200.0 mg/kg/injection, schedule: Q01DX005 (ip), vehicle: suspension in saline) was 98 % of control.
`C/C(=C\N1CCN(c2ccc(Cl)cc2)C(C)C1)C(=O)c1ccccc1` (stereo unspecified) was tested, and the T/C (dose: 100.0 mg/kg/injection, schedule: Q04DX003 (ip), vehicle: saline with Tween-80) was 94 % of control and the T/C (dose: 200.0 mg/kg/injection, schedule: Q04DX003 (ip), vehicle: saline with Tween-80) was 88 % of control.
With `O=C(Nc1ccccc1)c1c(O)[nH]c(=S)[nH]c1=O` the T/C (dose: 3.13 mg/kg/injection, schedule: Q01DX005 (ip), vehicle: saline with Tween-80) was 110 % of control, the T/C (dose: 6.25 mg/kg/injection, schedule: Q01DX005 (ip), vehicle: saline with Tween-80) was 116 % of control and the T/C (dose: 12.5 mg/kg/injection, schedule: Q01DX005 (ip), vehicle: saline with Tween-80) was 120 % of control. For the same molecule, the T/C [14] was 162 % of control and 201 % of control, the T/C (dose: 75.0 mg/kg/injection, schedule: Q01DX009 (ip), vehicle: saline with Tween-80) was 210 % of control and 237 % of control and 240 % of control and the T/C (dose: 175.0 mg/kg/injection, schedule: Q01DX009 (ip), vehicle: saline with Tween-80) was 283 % of control.
`COC1C(Br)C(C)(OC)c2ccccc2N1C#N` (stereo unspecified) was tested, and the T/C [1] was 101 % of control, the T/C [2] was 100 % of control and the T/C [3] was 100 % of control.
With `CC(C)(C)N(C/C=C/CN(Cc1ccccc1)Cc1ccccc1)C(C)(C)C` the T/C [4] was 87 % of control and the T/C [5] was 95 % of control.
With `CCOC(=O)C(Cc1c[nH]c2ccccc12)NCCNc1ccccc1` (stereo unspecified) the T/C [10] was 91 % of control, the T/C [11] was 91 % of control and the T/C [12] was 99 % of control.
In the case of `CCCC(=O)OCc1cc(=O)n(C)c2c3c4c(cc12)c(C)cc(=O)n4CO3`, the T/C (dose: 12.5 mg/kg/injection, schedule: Q01DX009 (ip), vehicle: other) is reported as 157 % of control, the T/C (dose: 25.0 mg/kg/injection, schedule: Q01DX009 (ip), vehicle: other) is reported as 151 % of control and 171 % of control and the T/C (dose: 50.0 mg/kg/injection, schedule: Q01DX009 (ip), vehicle: other) is reported as 163 % of control.
`CCCCN1C(=O)N/C(=C/C(=O)OCC)C1=O` was tested, and the T/C [18] was 93 % of control, the T/C [1] was 103 % of control and the T/C [2] was 102 % of control.
In the case of `O/N=C1\CN2CCC1CC2`, the T/C [7] is reported as 110 % of control and the T/C [8] is reported as 105 % of control.
For `c1c[se]c(-c2nc3ccccc3[nH]2)c1`, the T/C (dose: 12.5 mg/kg/injection, schedule: Q01DX005 (ip), vehicle: Klucel (hydroxypropylcellulose) (HPC)) was 99 % of control, the T/C (dose: 25.0 mg/kg/injection, schedule: Q01DX005 (ip), vehicle: Klucel (hydroxypropylcellulose) (HPC)) was 107 % of control and the T/C (dose: 50.0 mg/kg/injection, schedule: Q01DX005 (ip), vehicle: Klucel (hydroxypropylcellulose) (HPC)) was 110 % of control. The T/C (dose: 100.0 mg/kg/injection, schedule: Q01DX005 (ip), vehicle: Klucel (hydroxypropylcellulose) (HPC)) was 107 % of control.
With `[Cl][Hg][CH]1CCC2OC1CC[CH]2[Hg][Cl]` (stereo unspecified) the T/C (dose: 1.56 mg/kg/injection, schedule: Q01DX009 (ip), vehicle: saline with Tween-80) was 112 % of control, the T/C (dose: 3.12 mg/kg/injection, schedule: Q01DX009 (ip), vehicle: saline with Tween-80) was 105 % of control and 118 % of control and the T/C (dose: 6.25 mg/kg/injection, schedule: Q01DX009 (ip), vehicle: saline with Tween-80) was 121 % of control and 91 % of control. For the same molecule, the T/C (dose: 12.5 mg/kg/injection, schedule: Q01DX009 (ip), vehicle: saline with Tween-80) was 94 % of control.
`C=C[C@@](C)(O)CC/C=C(/C)CCC=C(C)C` was tested, and the T/C [17] was 110 % of control, the T/C [4] was 110 % of control and the T/C [5] was 110 % of control. For the same molecule, the T/C (dose: 100.0 mg/kg/injection, schedule: Q04DX003 (ip), vehicle: saline) was 109 % of control, the T/C (dose: 200.0 mg/kg/injection, schedule: Q04DX003 (ip), vehicle: saline) was 100 % of control and the T/C (dose: 400.0 mg/kg/injection, schedule: Q04DX003 (ip), vehicle: saline) was 113 % of control.
`O=C(N/N=C/c1ccccc1O)c1cc2ccccc2cc1O` was tested, and the T/C (dose: 7.5 mg/kg/injection, schedule: Q01DX005 (ip), vehicle: saline with Tween-80) was 92 % of control and the T/C (dose: 15.0 mg/kg/injection, schedule: Q01DX005 (ip), vehicle: saline with Tween-80) was 88 % of control.
